A short description of data set [1]: molar heat capacity at constant pressure. The settings on record: 101.33 kPa, Liquid, Small sample (50 mg) DSC.
For data set [2] the following is noted: 101.33 kPa, Liquid; for speed of sound: Sing-around technique in a fixed-path interferometer; for mass density: Vibrating tube method.

± gives the expanded uncertainty stated by the source.

Usually speed of sound stands for the propagation velocity of pressure waves in the medium. What is called mass density is the mass of a sample divided by its volume. For the compound `Cc1ccccc1C` [1,2-dimethylbenzene], the “molar heat capacity at constant pressure” value in data set [1] (298.15 K) came to 187.55 ± 2.9 J/K/mol; in data set [1] (303.15 K) it was 189.11 ± 2.9 J/K/mol; in data set [1] (308.15 K), 190.62 ± 3 J/K/mol. The speed of sound in data set [2] (298.15 K) is recorded as 1346.2 ± 0.8 m/s; in data set [2] (303.15 K), 1326.2 ± 0.8 m/s; in data set [2] (308.15 K) it was 1306.1 ± 0.8 m/s. In addition, the mass density in data set [2] (298.15 K) was found to be 875.91 ± 1 kg/m3; in data set [2] (303.15 K), 871.7 ± 1 kg/m3; in data set [2] (308.15 K), 867.48 ± 1 kg/m3.
For the compound `Cc1ccccc1Cl` [2-chlorotoluene], the “molar heat capacity at constant pressure” value in data set [1] (298.15 K) is given as 178.21 ± 2.8 J/K/mol; in data set [1] (303.15 K) it was 180.01 ± 2.8 J/K/mol; in data set [1] (308.15 K), 181.71 ± 2.8 J/K/mol. The speed of sound in data set [2] (298.15 K) is on record as 1298.7 ± 1 m/s; in data set [2] (303.15 K), 1280.7 ± 1 m/s; in data set [2] (308.15 K) it was 1262.7 ± 1 m/s. In addition, the mass density in data set [2] (298.15 K) is reported as 1077.3 ± 1 kg/m3; in data set [2] (303.15 K), 1072.5 ± 1 kg/m3; in data set [2] (308.15 K) it was 1067.6 ± 1 kg/m3.
As for `c1ccccc1` [benzene], the “molar heat capacity at constant pressure” value in data set [1] (298.15 K) is 135.18 ± 2.1 J/K/mol; in data set [1] (303.15 K) it was 136.4 ± 2.1 J/K/mol; in data set [1] (308.15 K), 137.61 ± 2.1 J/K/mol. In addition, the speed of sound stood at 1299.4 ± 0.8 m/s in data set [2] (298.15 K), 1276.1 ± 0.82 m/s in data set [2] (303.15 K) and 1252.9 ± 0.82 m/s in data set [2] (308.15 K). Also, the figures for the mass density in data set [2] (298.15 K), in data set [2] (303.15 K) and in data set [2] (308.15 K) were 873.54 ± 1 kg/m3, 868.2 ± 1 kg/m3 and 862.84 ± 1 kg/m3, respectively.
For `C1CCOCC1` [tetrahydropyran], the “molar heat capacity at constant pressure” value in data set [1] (298.15 K) stood at 149.62 ± 2.3 J/K/mol; in data set [1] (303.15 K) it was 151.22 ± 2.3 J/K/mol; in data set [1] (308.15 K), 153.08 ± 2.4 J/K/mol. The figures for the speed of sound in data set [2] (298.15 K), in data set [2] (303.15 K) and in data set [2] (308.15 K) were 1269.8 ± 0.9 m/s, 1246.8 ± 0.9 m/s and 1224.4 ± 0.9 m/s, respectively. Besides, the mass density in data set [2] (298.15 K) was found to be 879.13 ± 1 kg/m3; in data set [2] (303.15 K), 873.99 ± 1 kg/m3; in data set [2] (308.15 K) it was 868.83 ± 1 kg/m3.
Consider `Cc1ccccc1` [toluene], for which the “molar heat capacity at constant pressure” value in data set [1] (298.15 K) was found to be 157.18 ± 2.4 J/K/mol; in data set [1] (303.15 K), 158.61 ± 2.5 J/K/mol; in data set [1] (308.15 K), 160.09 ± 2.5 J/K/mol. Besides, the speed of sound in data set [2] (298.15 K) is on record as 1304.6 ± 1 m/s; in data set [2] (303.15 K), 1283.2 ± 1 m/s; in data set [2] (308.15 K) it was 1261.8 ± 1 m/s. Besides, the mass density in data set [2] (298.15 K) is 862.18 ± 1 kg/m3; in data set [2] (303.15 K), 857.51 ± 1 kg/m3; in data set [2] (308.15 K), 852.82 ± 1 kg/m3.
